Assay results from patent publication US20140088151A1, “ALHYDROXYMETHYL BIARYL BENZOTRIAZOLE DERIVATIVES” (priority 2011, published 2014).

The molecules below were run against T1, recombinant human mGluR2 (Homo sapiens, UniProt Q14416) (assay: FLIPR Ca2+ mobilization assay, potentiation of mGluR2). Settings: CHO dhfr- cells expressing human mGluR2 and Gα16, EC20 glutamate (900 nM).
T1 construct: expressed in transfected cells
Type: cell-based
Description: Potencies are determined as follows. The compounds of the present invention may be tested in a fluorescence laser imaging plate reader (FLIPR) based assay. This assay is a common functional assay to monitor Ca^2+ mobilization in whole cells expressing recombinant receptor coupled with a promiscuous G-protein. CHO dhfr− cells stably expressing recombinant human mGluR2 and Gα16 loaded with Fluo-4 AM (Invitrogen, Carlsbad Calif.) are treated with varying concentrations of compounds and the Ca^2+ response is monitored on a FLIPR384 (Molecular Devices, Sunnydale Calif.) for agonist activity. The potentiation response is monitored after a subsequent addition of an EC20 concentration of glutamate (900 nM). The maximum calcium response at each concentration of compound for agonism or potentiation are plotted as dose responses curves fitted with a four parameters logistic equation giving EC50 and Hill coefficient using the iterative non linear curve fitting software program.

T1 sequence (Q14416 19-872): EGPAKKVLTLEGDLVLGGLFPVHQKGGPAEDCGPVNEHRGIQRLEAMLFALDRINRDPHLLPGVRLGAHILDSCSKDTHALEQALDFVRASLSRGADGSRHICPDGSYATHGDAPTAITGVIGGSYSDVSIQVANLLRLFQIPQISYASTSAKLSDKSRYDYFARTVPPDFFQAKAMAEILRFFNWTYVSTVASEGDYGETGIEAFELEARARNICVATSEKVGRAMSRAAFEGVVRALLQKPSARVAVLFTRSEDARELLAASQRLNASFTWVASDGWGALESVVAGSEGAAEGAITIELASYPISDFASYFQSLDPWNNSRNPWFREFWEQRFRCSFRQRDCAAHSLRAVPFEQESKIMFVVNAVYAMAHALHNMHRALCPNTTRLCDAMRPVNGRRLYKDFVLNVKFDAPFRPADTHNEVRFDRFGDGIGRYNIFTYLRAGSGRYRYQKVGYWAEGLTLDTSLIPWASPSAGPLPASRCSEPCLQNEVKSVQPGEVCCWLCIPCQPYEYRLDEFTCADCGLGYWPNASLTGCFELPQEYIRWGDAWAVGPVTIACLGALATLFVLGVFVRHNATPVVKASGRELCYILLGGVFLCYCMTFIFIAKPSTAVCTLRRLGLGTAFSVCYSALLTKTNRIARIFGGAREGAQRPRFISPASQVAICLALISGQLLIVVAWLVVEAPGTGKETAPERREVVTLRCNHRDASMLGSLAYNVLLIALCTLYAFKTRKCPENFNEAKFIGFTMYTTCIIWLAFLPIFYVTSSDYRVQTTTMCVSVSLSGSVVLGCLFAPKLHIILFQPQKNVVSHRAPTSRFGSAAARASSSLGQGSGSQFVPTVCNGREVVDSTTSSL

Compound	EC50 [nM]
OCc1ccc(-c2ccc3c(nnn3CC3CC3)c2C(F)(F)F)c(F)n1 [Example 1, {5-[1-(Cyclopropylmethyl)-4-(trifluoromethyl)-1H-benzotriazol-5-yl]-6-fluoropyridin-2-yl}methanol]	27
OCc1ccc(-c2ccc3c(nnn3CC3CC3)c2C(F)(F)F)cc1 [Example 2, {4-[1-(cyclopropylmethyl)-4-(trifluoromethyl)-1H-benzotriazol-5-yl]phenyl}methanol]	11
COC(=O)c1ccc(-c2ccc3c(nnn3CC3CC3)c2C(F)(F)F)c(F)c1 [Example 3, methyl 4-[1-(cyclopropylmethyl)-4-(trifluoromethyl)-1H-benzotriazol-5-yl]-3-fluorobenzoate]	15
OCC(O)c1ccc(-c2ccc3c(nnn3CC3CC3)c2C(F)(F)F)c(F)n1 (centres unmarked) [Example 4, 1-{5-[1-(cyclopropylmethyl)-4-(trifluoromethyl)-1H-benzotriazol-5-yl]-6-fluoropyridin-2-yl}ethane-1,2-diol]	130
CC(O)c1ccc(-c2ccc3c(nnn3CC3CC3)c2C(F)(F)F)cc1 (centres unmarked) [Example 5, 1-{4-[1-(cyclopropylmethyl)-4-(trifluoromethyl)-1H-benzotriazol-5-yl]phenyl}ethanol]	8.3
COC(C)c1ccc(-c2ccc3c(nnn3CC3CC3)c2C(F)(F)F)cc1 (centres unmarked) [Example 6, 1-(cyclopropylmethyl)-5-[4-(1-methoxyethyl)phenyl]-4-(trifluoromethyl)-1H-benzotriazole]	31
CC(C)(O)c1ccc(-c2ccc3c(nnn3CC3CC3)c2C(F)(F)F)cc1 [Example 7, 2-{4-[1-(cyclopropylmethyl)-4-(trifluoromethyl)-1H-benzotriazol-5-yl]phenyl}propan-2-ol]	2.1
OC1CCOc2cc(-c3ccc4c(nnn4CC4CC4)c3C(F)(F)F)ccc21 (centres unmarked) [Example 8, 7-[1-(cyclopropylmethyl)-4-(trifluoromethyl)-1H-benzotriazol-5-yl]-3,4-dihydro-2H-chromen-4-ol]	3.9
